One assay concerns the target Tau(306-336) peptide (Homo sapiens, UniProt P10636). Conditions: Tau(306-336) 50 µM, inhibitor 50 µM (1:1 ratio); mean ± SEM; 50 µM.
For a further assay, the system named is mice. Nature of the assay: Object Recognition task (ORT), scopolamine-induced memory impairment. The class given is in vivo. On the procedure: For behavioural studies, 50 swiss female 10-week-old weighing 25-30 g were used. Memory impairment was induced by the potent antimuscarinic drug scopolamine hydrobromide (0.5 mg/kg, Sigma) dissolved in saline buffer. To explore the potential of BIGI-3h as a cognitive enhancer, the compound was administered at a dose of 1 mg/kg and 10 mg/kg. For comparison, the antiamnesic effect of donepezil was tested (Tocris Bioscience, R&D Systems Inc.) at a dose of 1 mg/kg. Both products, 3h and donepezil, were dissolved in saline buffer containing 3.6% dimethyl sulfoxide. All drug solutions were independently prepared immediately before their use and were administered intraperitoneally in 10 mL/kg of vehicle volume. Different batches of mice were used for each experiment. The animals were distributed into 5 experimental groups (I-V): control groups (I) mice administered 3.6% DMSO in saline buffer, labelled as "control vehicle"; experimental groups (II-V) consisted of (II) mice administered scopolamine dissolved in 3.6% DMSO in saline buffer, labelled as "scop/DMSO," (III) mice co-administered scopolamine plus Donepezil, labelled as "Scopo/donep," (IV) and (V) mice co-administrated scopolamine plus BIGI-3h at 1mg/Kg and 10mg/Kg labelled respectively "Scopo/3h 1" "Scopo/3h 10".
Spontaneous object recognition was tested as described previously, 28 with slight modifications. All behavioural experiments took place during the light phase of the 12-h light/ dark cycle between 10 am and 3 pm to minimize the influence of circadian rhythm, and they were conducted with the investigators blind to treatments. […] The total time spent in active exploration of each object during T1 and T2 was determined with a computerized tracking system and image analyzer (Ethovision XT, Noldus Information Technology) that tracked the nose, centre and tail points of each mouse^45. As a criterion of active object exploration, it was measured the time spent by the animal directing its nose to the object at a distance of less than 2 cm and/or touching it with the vibrissae or nose. […]

In a further assay the test system is SH-SY5Y cells. Nature of the assay: Effect on Aβ25-35 peptide-induced cell death (MTT assay). The format is cell-based. As to conditions: Homo sapiens, read-out: increase in cell viability. On the procedure:
Lyophilized synthetic Aβ25-35 peptide was dissolved in sterile water at a concentration of 2 mM, aliquoted and kept at -80°C until use. Aliquots were diluted in culture medium to achieve a final concentration of 30 µM and incubated for 72h at 37°C to form aggregated amyloid. SH-SY5Y cells were seeded in 96-well culture plates at a density of 12 × 10^4 cells per well in DMEM/F12 (1 :1) medium supplemented with 10% fetal bovine serum, 1X non-essential amino acids, 100 units/ml penicillin and 10 mg/ml streptomycin (Dutscher, France). Cultures were kept under a CO2/air (5%/95%) humidified atmosphere at 37°C. After 24h of incubation, the cultures were treated with 100 µl of the compound BIGI-3h or DMSO (0.1%) in DMEM/F12 (1:1) medium supplemented with 1% fetal bovine serum, 1X non-essential amino acids, 100 units/ml penicillin and 10 mg/ml streptomycin. After 24h of treatment, cells were co-incubated with Aβ25-35 peptide (30 µM) with or without the compound BIGI-3h for an additional period of 24h. MTT assay, a common colorimetric assay for assessing cell metabolic activity, was performed as described below.
The cell viability was assessed by measuring the reduction of MTT (3-(4,5-dimethylthiazol-2-yl)-2,5-diphenyltetrazolium bromide) to a formazan product. […] The absorbance at 570 nm and 630 nm (background) was measured using a microplate reader.

The structures appear in SMILES notation. “And” between values parts separate entries of the source, which are not always exact repeats. Equal entries are not always repeated.

Sequence of Tau(306-336) peptide (P10636 623-653 limits assumed): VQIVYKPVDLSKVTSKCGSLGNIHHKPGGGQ
Protocol for Tau(306-336) peptide: Subsequently, the sample was aliquoted dried and stored at -20 °C.
Fluorescence data were recorded every 10 min overnight with 1 min shaking at 800 rpm prior to each reading. Each inhibitor was assayed in triplicates in at least two independent experiments. […] Inhibition % are expressed as the mean ± SEM. […] Values were averaged and the presented values are expressed as the mean ± SEM.
Fluorescence data were recorded every 10 min overnight with 1 min shaking at 800 rpm prior to each reading.

`CCOC(=O)C1=C(C)N(CCC2CCN(Cc3ccccc3)CC2)C(=O)NC1c1coc2c(Cl)cc(Cl)cc2c1=O` (racemic) [BIGI-3h, ethyl 1-(2-(1-benzylpiperidin-4-yl)ethyl)-4-(6,8-dichloro-4-oxo-4H-chromen-3-yl)-6-methyl-2-oxo-1,2,3,4-tetrahydropyrimidine-5-carboxylate]: the “Inhibition of T (306-336) peptide self - aggregation (%)” value at Tau(306-336) peptide is 73.7% and 73.7 ± 5.4%. In addition, the “recognition index / discrimination index (Figure 5)” value in the assay with mice (1 mg/kg intraperitoneally with scopolamine 0.5 mg/kg) was “reversed the short-term memory impairment induced by scopolamine”; in the assay with mice (10 mg/kg intraperitoneally with scopolamine 0.5 mg/kg, **p < 0.01 vs scopo/DMSO), “significantly improved discrimination index”. Also, the viability at 10 µM in the assay on SH-SY5Y cells was 40.4%. Also, the viability at 20 µM in the assay on SH-SY5Y cells was found to be 61.4%.

The values are drawn from EP4168403B1 (priority 2020, dated 2021).
